Assay results: article PMC8867174, “S-Nitrosation of Arabidopsis thaliana Protein Tyrosine Phosphatase 1 Prevents Its Irreversible Oxidation by Hydrogen Peroxide” (Frontiers in Plant Science, 2022)

How the values were obtained:
[1] = molecular target: T1, His-AtPTP1 (Arabidopsis thaliana Protein Tyrosine Phosphatase 1) (Arabidopsis thaliana, UniProt O82656); experiment: pNPP hydrolysis after overnight pre-treatment, […] nm; type: biochemical; conditions: covalent (NO donor, S-nitrosation); 250 uM to 1 mM SNAP overnight 25 C, removed by gel filtration; assay 1 mM pNPP, pH 6.3, 25 C
T1 construct: gene PTP1
T1 sequence (O82656 1-340): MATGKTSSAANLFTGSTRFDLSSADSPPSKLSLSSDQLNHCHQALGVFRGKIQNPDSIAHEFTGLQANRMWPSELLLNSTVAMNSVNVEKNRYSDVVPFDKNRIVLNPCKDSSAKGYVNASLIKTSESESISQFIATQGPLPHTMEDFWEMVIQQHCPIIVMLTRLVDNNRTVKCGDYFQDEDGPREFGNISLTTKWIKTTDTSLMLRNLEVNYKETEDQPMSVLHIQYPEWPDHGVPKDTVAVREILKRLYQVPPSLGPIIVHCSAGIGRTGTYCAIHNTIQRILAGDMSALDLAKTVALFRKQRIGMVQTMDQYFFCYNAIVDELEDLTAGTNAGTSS

[2] = molecular target: T1, His-AtPTP1 (Arabidopsis thaliana Protein Tyrosine Phosphatase 1); experiment: pNPP hydrolysis after overnight pre-treatment, […] nm; biotin switch LC-MS/MS; type: biochemical; conditions: covalent (S-nitrosation of catalytic C265, reversible by DTT); 100 or 500 uM GSNO overnight 25 C, removed by gel filtration; assay 1 mM pNPP, pH 6.3, 25 C, no DTT

Structure (SMILES)	relative activity [1]	relative activity [2]
CC(=O)NC(C(=O)O)C(C)(C)SN=O (centres unmarked) [S-nitroso-N-acetylpenicillamine]	Treatment of His-AtPTP1 with SNAP also led to a significant decrease in its activity	
N[C@@H](CCC(=O)N[C@@H](CSN=O)C(=O)NCC(=O)O)C(=O)O [S-nitrosoglutathione]		GSNO inhibited the enzymatic activity of His-AtPTP1
